pEC50: −log10 of the molar value.

A word on the pEC50: it is the EC50 on a negative log10 scale, so that one unit is a factor of ten. A low value points to a large EC50.

For this test, the system named is HIV-1. The test can be described thus: Single-round infectious HIV-1 luciferase reporter virus infection of HeLa CD4 cells. The conditions noted are these: Human immunodeficiency virus 1, HeLa, 72 h. It counts as cell-based. The protocol:
Cells: (virus production) human embryonic kidney cell line, 293, was propagated in Dulbecco's Modified Eagle Medium (Invitrogen, Carlsbad, Calif.) containing 10% fetal Bovine serum (FBS, Sigma, St. Louis, Mo.); (virus infection) human epithelial cell line, HeLa, expressing the HIV-1 receptor CD4 was propagated in Dulbecco's Modified Eagle Medium (Invitrogen, Carlsbad, Calif.) containing 10% fetal Bovine serum (FBS, Sigma, St. Louis, Mo.) and supplemented with 0.2 mg/mL Geneticin (Invitrogen, Carlsbad, Calif.).
Virus: single-round infectious reporter virus was produced by co-transfecting human embryonic kidney 293 cells with an HIV-1 envelope DNA expression vector and a proviral cDNA containing an envelope deletion mutation and the luciferase reporter gene inserted in place of HIV-1 nef sequences. Transfections were performed using lipofectAMINE PLUS reagent as described by the manufacturer (Invitrogen, Carlsbad, Calif.).
Experiment: HeLa CD4 cells were plated in 96 well plates at a cell density of 1×10^4 cells per well in 100 μl Dulbecco's Modified Eagle Medium containing 10% fetal Bovine serum and incubated overnight. Compound was added in a 2 μl dimethylsulfoxide solution, so that the final assay concentration would be ≦10 μM. Single-round infectious reporter virus (100 μL) in Dulbecco's Modified Eagle Medium was then added to the plated cells and compound at an approximate multiplicity of infection (MOI) of 0.01, resulting in a final volume of 200 μl per well. Virally-infected cells were incubated at 37 degrees Celsius, in a CO2 incubator, and harvested 72 h after infection. Viral infection was monitored by measuring luciferase expression from viral DNA in the infected cells using a luciferase reporter gene assay kit, as described by the manufacturer (Roche Molecular Biochemicals, Indianapolis, Ind.). Infected cell supernatants were removed and 50 μl of lysis buffer was added per well. After 15 minutes, 50 μl of freshly-reconstituted luciferase assay reagent was added per well. Luciferase activity was then quantified by measuring luminescence using a Wallac microbeta luminescence reader.
The percent inhibition for each compound was calculated by quantifying the level of luciferase expression in cells infected in the presence of each compound as a percentage of that observed for cells infected in the absence of compound and subtracting such a determined value from 100. The effective concentration for fifty percent inhibition (EC50) was calculated with Microsoft Excel Xlfit curve fitting software. For each compound, curves were generated from percent inhibition calculated at 10 different concentrations by using a four paramenter logistic model (model 205).
With `COc1ncc(OC)c2c(C(=O)C(=O)N3CCc4c(c5ccccc5n4-c4ccccc4)C3)c[nH]c12` [Example 1, 1-(5-Phenyl-1,3,4,5-tetrahydro-pyrido[4,3-b]indol-2-yl)-2-(4,7-dimethoxy-6-azaindol-3-yl)-ethane-1,2-dione], the pEC50 was > 6.00.
As for `COc1ncc(OC)c2c(C(=O)C(=O)N3CCc4[nH]c5ccccc5c4C3)c[nH]c12` [Example 2, 1-(1,3,4,5-Tetrahydro-pyrido[4,3-b]indol-2-yl)-2-(4,7-dimethoxy-6-azaindol-3-yl)-ethane-1,2-dione], the pEC50 is < 5.30.
With `COc1ncc(OC)c2c(C(=O)C(=O)N3CCc4[nH]c5ccc(F)cc5c4C3)c[nH]c12` [Example 3, 1-(8-Fluoro-1,3,4,5-tetrahydro-pyrido[4,3-b]indol-2-yl)-2-(4,7-dimethoxy-6-azaindol-3-yl)-ethane-1,2-dione] the figure was < 5.30.
For `COc1ncc(OC)c2c(C(=O)C(=O)N3CCc4c(c5cc(F)ccc5n4C)C3)c[nH]c12` [Example 4, 1-(8-Fluoro-5-methyl-1,3,4,5-tetrahydro-pyrido[4,3-b]indol-2-yl)-2-(4,7-dimethoxy-6-azaindol-3-yl)-ethane-1,2-dione] the value was > 6.00; for `COc1ncc(OC)c2c(C(=O)C(=O)N3CCc4[nH]c5ccc(C(F)(F)F)cc5c4C3)c[nH]c12` [Example 5, 1-(8-Trifluoromethyl-1,3,4,5-tetrahydro-pyrido[4,3-b]indol-2-yl)-2-(4,7-dimethoxy-6-azaindol-3-yl)-ethane-1,2-dione], 5.30 to 6.00; for `COc1cnc(-n2cnc(C)n2)c2[nH]cc(C(=O)C(=O)N3CCc4c(c5ccccc5n4-c4ccccc4)C3)c12` [Example 6, 1-(5-Phenyl-1,3,4,5-tetrahydro-pyrido[4,3-b]indol-2-yl)-2-[4-methoxy-7-(3-methyl-1,2,4-triazol-1-yl)-6-azaindol-3-yl]-ethane-1,2-dione], > 6.00.
Turning to `COc1cnc(-n2ncnc2C)c2[nH]cc(C(=O)C(=O)N3CCc4c(c5ccccc5n4-c4ccccc4)C3)c12` [Example 7, 1-(5-Phenyl-1,3,4,5-tetrahydro-pyrido[4,3-b]indol-2-yl)-2-[4-methoxy-7-(5-methyl-1,2,4-triazol-1-yl)-6-azaindol-3-yl]-ethane-1,2-dione], the pEC50 was > 6.00.
With `COc1cnc(-n2cnc(C)n2)c2[nH]cc(C(=O)C(=O)N3CCc4c(c5cc(F)ccc5n4-c4ccccc4)C3)c12` [Example 8, 1-(8-Fluoro-5-phenyl-1,3,4,5-tetrahydro-pyrido[4,3-b]indol-2-yl)-2-[4-methoxy-7-(3-methyl-1,2,4-triazol-1-yl)-6-azaindol-3-yl]-ethane-1,2-dione] the figure was > 6.00; with `COc1cnc(-n2ccnn2)c2[nH]cc(C(=O)C(=O)N3CCc4c(c5cc(F)ccc5n4-c4ccccc4)C3)c12` [Example 9, 1-(8-Fluoro-5-phenyl-1,3,4,5-tetrahydro-pyrido[4,3-b]indol-2-yl)-2-[4-methoxy-7-(1,2,3-triazol-1-yl)-6-azaindol-3-yl]-ethane-1,2-dione], > 6.00.

(Values after US7449476B2, “Tetrahydrocarboline antiviral agents” (priority 2004, dated 2008).)
